Values of other authors as cited in article PMC3292467, “Comparison between ^68Ga-bombesin (^68Ga-BZH3) and the cRGD tetramer ^68Ga-RGD4 studies in an experimental nude rat model with a neuroendocrine pancreatic tumor cell line” (EJNMMI Research, 2011).

What was measured:
Conditions in all cases: background statement; no reference given; cited from earlier work
BB1 (Neuromedin B) = test system: BB1 (Neuromedin B)
Excerpt: (§1) Objectives Receptor scintigraphy gains more interest for diagnosis and treatment of tumors, in particular for neuroendocrine tumors (NET). We used a pan-Bombesin analog, the peptide DOTA-PEG2-[D-tyr^6, β-Ala^11, Thi^13, Nle^14] BN(6-14) amide (BZH3). BZH3 binds to at least three receptor subtypes: the BB1 (Neuromedin B), BB2 (Gastrin-releasing peptide, GRP), and BB3. Imaging of ανβ3 integrin expression playing an important role in angiogenesis and metastasis was accomplished with a ^68Ga-RGD tetramer. […] We have reported ^68Ga-labeled bombesin may be helpful for diagnostic reasons in a subgroup of patients ...

[1] = test system: bombesin receptor subtype (BB3)
Excerpt: as §1

[2] = test system: gastrin-releasing peptide receptor (GRP-r, also known as BB2)
Excerpt: as §1

Substance	binding/affinity for BB1 (BB1 (Neuromedin B))	binding/affinity for BB3 [1]	binding/affinity for BB2 [2]
Bombesin [reference compound]	high affinity	high affinity	high affinity
DOTA-PEG2-[D-Tyr^6 -β-Ala^11 -Thi^13 -Nle^14 ]BN(6-14) amide [BZH3, pan-Bombesin analog, unlabelled precursor]	binds	binds	binds
